Assay results as given in US9884851B2, “Heterocycle-bisamide inhibitors of scavenger receptor BI” (THE BROAD INSTITUTE, INC., priority 2012, dated 2018).
Changes are numbered by the printed parent chain.

Columns and labels:
[1] = target: T1, C384S SR-BI (Mus musculus, UniProt Q61009, C384S); assay: Radioactive HDL uptake assay (mutant SR-BI); format: cell-based, murine; conditions: Cys384 converted to serine
T1 construct: expressed in transfected cells; host or cells: CHO cell line lacking LDL receptors, overexpressing C384S SR-BI
T1 sequence (Q61009 1-509 C384S): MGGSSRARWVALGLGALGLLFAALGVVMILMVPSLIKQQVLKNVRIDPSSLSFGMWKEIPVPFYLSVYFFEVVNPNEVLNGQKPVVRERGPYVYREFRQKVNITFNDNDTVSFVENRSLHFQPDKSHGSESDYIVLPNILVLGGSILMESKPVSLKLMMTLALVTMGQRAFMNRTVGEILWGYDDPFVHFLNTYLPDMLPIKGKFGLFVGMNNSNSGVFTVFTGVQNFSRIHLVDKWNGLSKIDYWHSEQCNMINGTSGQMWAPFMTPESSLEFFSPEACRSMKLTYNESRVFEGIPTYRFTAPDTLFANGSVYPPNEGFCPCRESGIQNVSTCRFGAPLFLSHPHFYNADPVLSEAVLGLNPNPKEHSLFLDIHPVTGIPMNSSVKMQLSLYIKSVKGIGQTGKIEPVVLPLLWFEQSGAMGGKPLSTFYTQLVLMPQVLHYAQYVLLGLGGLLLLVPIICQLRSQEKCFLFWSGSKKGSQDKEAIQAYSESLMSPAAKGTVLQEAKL
Excerpt: Radioactive HDL Uptake Assay (mutant SR-BI) (SA 9: AID No. 588837)
BLT-1 is known to interact at cysteine 384 of SR-BI (16). […] This assay is used to determine if the compounds work in a similar fashion to BLT-1 and require Cys384 to alter the binding of HDL particles and uptake of the lipid to the mutant SR-BI scavenger receptor, using an alternative means of labeling HDL particles and avoiding any type of fluorescence measurement. To measure this lipid uptake event, HDL particles are labeled with [^3H]cholesteryl ester and added to C384S SR-BI cells. Cells take up HDL lipid via the mutant SR-BI in 2 to 3 hours. After significant uptake of the HDL lipid, the radiolabel can be detected by liquid scintillation counting. The level of radioactivity correlates with the amount of HDL lipid uptake. The uptake of lipid from HDL particles can be inhibited by the compound BLT-1 or when co-treated with an excess of unlabeled HDL. The mSR-BI cells utilized in the assay are a CHO cell line lacking expression of the LDL receptors and overexpressing the mutant scavenger receptor, C384S SR-BI.

[2] = test system: hepatitis C virus (HCV); assay: In vitro testing with Huh-7.5 cells infected with HCV; format: cell-based; conditions: for inhibition of HCV replication (in words): Huh-7.5 cells infected with Jcl 378-1 TagRFP (MOI=0.1), 3 dpi
Method: A series of tests were conducted using the compound of Formula II (CID53393835/ML279), other known inhibitors of SR-BI and controls with cells infected with hepatitis C virus (HCV). The cells (Huh-7.5 cells infected with Jcl 378-1 TagRFP (MOI=0.1) 3 dpi) were treated with the following SR-BI compounds and controls:
Three different infection protocols were followed: (1) no wash—virus inoculum was removed 4hpi and fresh medium containing compounds added without washing cells; (2) 5× wash—virus inoculum was removed 4hpi, cells were washed 5× with PBS and fresh medium containing compounds added; and (3) no wash Opt—infection were performed in serum-free OptiMem; virus inoculum was removed 4hpi and fresh medium containing compounds added without washing cells. FIG. 90 provides a comparison of the three different infection set-ups. FIG. 91 provides a comparison of two independent experiments.

[3] = target: T2, SR-BI (Mus musculus, UniProt Q61009); assay: DiI-HDL uptake assay with extended washout; format: cell-based, murine; set-up: expressed in transfected cells; host or cells: ldlA[mSR-BI], Chinese hamster ovary (CHO) cells lacking LDL receptor (Krieger Laboratory); conditions: 4-hour washout period
T2 sequence (Q61009 1-509): T1 sequence (Q61009 1-509 C384S) with S384C
Method: DiI-HDL Uptake Assay with Extended Washout (SA 5: AID No. 588831)
This is another modification of the primary assay where cells are pretreated with compound but no compound is present during a 4-hour washout period or the subsequent 3-hour DiI-HDL treatment period. […] Cells were treated with compound for 3 hours, then were washed four times with PBS, once with lipoprotein-free media (Ham's F12/0.5% fatty acid-free Bovine Serum Albumin [BSA]/25 mM HEPES pH 7.4), and then returned to the incubator with lipoprotein-free media for 4 hours. Media were then removed and cells were washed with PBS before fresh lipoprotein-free media (Ham's F12/0.5% fatty acid-free Bovine Serum Albumin [BSA]/25 mM HEPES pH 7.4) was added with 10 μg protein/ml DiI-HDL. Cells took up the DiI via SR-BI over 3 hours in the absence of compound. After significant uptake of the DiI, the cells became fluorescent. The level of fluorescence correlates with the amount of DiI uptake and can be measured with a standard plate reader. The uptake of lipid (represented by DiI) was inhibited by the compound BLT-1 or with an excess of HDL untreated with DiI.

CCCCCCC1CCCC1=NNC(N)=S (stereo not shown) [BLT-1, reference compound]
uptake of HDL in C384S mutant background (in words) [1]: cannot reduce uptake of HDL or efflux of cholesterol
inhibition of HCV replication (in words) ([2]; listed as 8): able to inhibit HCV replication
inhibition of HCV replication (in words) ([2]; listed as SRB1-8): inhibited viral replication
mean fluorescence intensity (MFI) of HCV positive cells (in words) ([2]; dose dependence): increased mean fluorescence intensity (MFI) of HCV positive cells in a dose dependent manner
IC50 ([3]; read-out: DiI-HDL uptake IC50 after 4-hour washout period): 0.6 nM

C[C@H](C(=O)NC1CCCC1)N(C(=O)Cn1nnc(-c2ccc3c(c2)OCO3)n1)C1CCCCC1 [ML279, (R)-2-(2-(5-(Benzo[d][1,3]dioxol-5-yl)-2H-tetrazol-2-yl)-N-cyclohexylacetamido)-N-cyclopentylpropanamide]
uptake of HDL in C384S mutant background (in words) [1]: can reduce uptake and efflux in the mutant background
inhibition of HCV replication (in words) ([2]; listed as 5): able to inhibit HCV replication
inhibition of HCV replication (in words) ([2]; listed as SRB1-5): inhibited viral replication
inhibition of virus assembly/egress (in words) ([2]; fluorescence intensity of HCV positive cells normalized to DMSO): can also inhibit virus assembly/egress
activity after extended washout (in words) [3]: greatly attenuated
